In patent US10047086B2, “Imidazopyridines and imidazopyrazines as LSD1 inhibitors” (Incyte Corporation, priority 2014, dated 2018) one finds IC50 data, which are given here for 13 molecules.

Each structure is given as a SMILES string. Some results are limits rather than exact numbers.

For the test, the target named is LSD-1 enzyme (Homo sapiens (Human), UniProt O60341). Description: LANCE LSD1/KDM1A demethylase assay (LSD1 histone demethylase biochemical assay). The note with it: 1 nM LSD-1 enzyme, 1 hour preincubation at 25° C., 0.4 μM Biotin-labeled Histone H3 peptide substrate. On the procedure: LSD1 Histone Demethylase Biochemical Assay
LANCE LSD1/KDM1A demethylase assay-10 μL of 1 nM LSD-1 enzyme (ENZO BML-SE544-0050) in the assay buffer (50 mM Tris, pH 7.5, 0.01% Tween-20, 25 mM NaCl, 5 mM DTT) were preincubated for 1 hour at 25° C. with 0.8 μL compound/DMSO dotted in black 384 well polystyrene plates. […] Reactions were stopped by addition of 10 μL 1× LANCE Detection Buffer (PerkinElmer CR97-100) supplemented with 1.5 nM Eu-anti-unmodified H3K4 Antibody (PerkinElmer TRF0404), and 225 nM LANCE Ultra Streptavidin (PerkinElmer TRF102) along with 0.9 mM Tranylcypromine-HCl (Millipore 616431). After stopping the reactions plates were incubated for 30 minutes and read on a PHERAstar FS plate reader (BMG Labtech).
A general note: TR-FRET usually uses a lanthanide donor and a delayed reading to cut background.
Usually IC50 stands for the concentration at which inhibition is half-maximal. The low end stands for higher potency, the high end for lower potency. Take `CN(C)C1CCN(c2nc(-c3ccc(C#N)cc3)c(-c3ccc4c(c3)CC(O)C4)n3cncc23)CC1` (racemic) [Example 136, 4-[8-[4-(dimethylamino)piperidin-1-yl]-5-(2-hydroxy-2,3-dihydro-1H-inden-5-yl)imidazo[1,5-a]pyrazin-6-yl]benzonitrile]: the IC50 is at most 50 nM.

`Cc1ccc(-c2c(-c3ccc(C#N)cc3)cc(OC[C@@H]3CCNC3)c3cncn23)cc1` [Example 1, 4-{5-(4-methylphenyl)-8-[(3R)-pyrrolidin-3-ylmethoxy]imidazo[1,5-a]pyridin-6-yl}benzonitrile] registered an IC50 of at most 50 nM. The same measure for `Cc1ccc(-c2c(-c3ccc([N+](=O)[O-])cc3)cc(OC[C@@H]3CCNC3)c3cncn23)cc1` [Example 3, 5-(4-methylphenyl)-6-(4-nitrophenyl)-8-[(3R)-pyrrolidin-3-ylmethoxy]imidazo[1,5-a]pyridine]: at most 50 nM; for `Cc1ccc(-c2c(-c3ccc(C#N)c(F)c3)cc(OC[C@@H]3CCNC3)c3cncn23)cc1` [Example 4, 2-fluoro-4-{5-(4-methylphenyl)-8-[(3R)-pyrrolidin-3-ylmethoxy]imidazo[1,5-a]pyridin-6-yl}benzonitrile]: at most 50 nM. The same measure for `Cc1ccc(-c2c(-c3ccc(C#N)cc3F)cc(OC[C@@H]3CCNC3)c3cncn23)cc1` [Example 5, 3-fluoro-4-{5-(4-methylphenyl)-8-[(3R)-pyrrolidin-3-ylmethoxy]imidazo[1,5-a]pyridin-6-yl}benzonitrile]: at most 50 nM; for `Cc1ccc(-c2c(-c3ccc(C#N)cc3)cc(OC[C@@H]3CCNC3)c3cncn23)c(F)c1` [Example 8, 4-{5-(2-fluoro-4-methylphenyl)-8-[(3R)-pyrrolidin-3-ylmethoxy]imidazo[1,5-a]pyridin-6-yl}benzonitrile]: at most 50 nM; for `CCC1CC=C(c2c(-c3ccc(C#N)cc3)cc(OC[C@@H]3CCNC3)c3cncn23)CC1` (stereo partly drawn) [Example 9, 4-{5-(4-ethylcyclohex-1-en-1-yl)-8-[(3R)-pyrrolidin-3-ylmethoxy]imidazol[1,5-a]pyridin-6-yl}benzonitrile]: at most 50 nM. In the case of `Cn1ncc2cc(-c3c(-c4ccc(C#N)cc4)cc(OC[C@@H]4CCNC4)c4cncn34)ccc21` [Example 11, 4-{5-(1-methyl-1H-indazol-5-yl)-8-[(3R)-pyrrolidin-3-ylmethoxy]imidazo[1,5-a]pyridin-6-yl}benzonitrile], the 50% inhibitory concentration (IC50) is at most 50 nM. The same measure for `CN1C(=O)Cc2cc(-c3c(-c4ccc(C#N)cc4)cc(OC[C@@H]4CCNC4)c4cncn34)ccc21` [Example 12, 4-{5-(1-methyl-2-oxo-2,3-dihydro-1H-indol-5-yl)-8-[(3R)-pyrrolidin-3-ylmethoxy]imidazo-[1,5-a]pyridin-6-yl}benzonitrile]: at most 50 nM; for `CN1CCOc2cc(-c3c(-c4ccc(C#N)cc4)cc(OC[C@@H]4CCNC4)c4cncn34)ccc21` [Example 14, 4-{5-(4-methyl-3,4-dihydro-2H-1,4-benzoxazin-7-yl)-8-[(3R)-pyrrolidin-3-ylmethoxy]imidazo[1,5-a]pyridin-6-yl}benzonitrile]: at most 50 nM. The same measure for `CN1CCOc2ccc(-c3c(-c4ccc(C#N)cc4)cc(OC[C@@H]4CCNC4)c4cncn34)cc21` [Example 15, 4-{5-(4-methyl-3,4-dihydro-2H-1,4-benzoxazin-6-yl)-8-[(3R)-pyrrolidin-3-ylmethoxy]imidazo[1,5-a]pyridin-6-yl}benzonitrile]: at most 50 nM; for `N#Cc1ccc(-c2cc(OC[C@@H]3CCNC3)c3cncn3c2-c2ccc3c(c2)OCCO3)cc1` [Example 16, 4-{5-(2,3-dihydro-1,4-benzodioxin-6-yl)-8-[(3R)-pyrrolidin-3-ylmethoxy]imidazo[1,5-a]pyridin-6-yl}benzonitrile]: at most 50 nM; for `N#Cc1ccc(-c2cc(OC[C@@H]3CCNC3)c3cncn3c2-c2ccc(CCN3CCOCC3)cc2)cc1` [Example 18, 4-{5-[4-(2-morpholin-4-ylethyl)phenyl]-8-[(3R)-pyrrolidin-3-ylmethoxy]imidazo[1,5-a]pyridin-6-yl}benzonitrile]: at most 50 nM.
